# Experimental data from ChEMBL document CHEMBL1121434, “4-[(Aminoalkyl)amino]-1,2-dimethoxynaphthalenes as antimalarial agents” (J Med Chem, 1980).
# Calls of active or inactive are those of the source. The calls are words filed in the database; no cut-off is given here.
# How the values were obtained:
# Monkey [1] = assay: Tested for radical curative activity in monkeys infected with Plasmodium cynomolgi at 1.0 (mg/kg)/day dose; I = inactive; type: functional, organism-based; settings: Cercopithecidae
# Monkey [2] = assay: Tested for radical curative activity in monkeys infected with Plasmodium cynomolgi at 10.0 (mg/kg)/day dose; C = curative; type: functional, organism-based; settings: Cercopithecidae
# Monkey [3] = assay: Tested for radical curative activity in monkeys infected with Plasmodium cynomolgi I = inactive; type: functional, organism-based; settings: Cercopithecidae
# Monkey [4] = assay: Tested for radical curative activity in monkeys infected with Plasmodium cynomolgi at 0.316 (mg/kg)/day dose; I = inactive; type: functional, organism-based; settings: Cercopithecidae
# Monkey [5] = assay: Tested for radical curative activity in monkeys infected with Plasmodium cynomolgi at 1 (mg/kg)/day dose; I = inactive; type: functional, organism-based; settings: Cercopithecidae
# Monkey [6] = assay: Tested for radical curative activity in monkeys infected with Plasmodium cynomolgi at 10 (mg/kg)/day dose; T = toxic; type: organism-based; settings: cercopithecidae, in vivo
smiles,measurement,setting,value
COc1cc(NCCCC(C)N)c2cc(Br)ccc2c1OC (stereo not drawn),Activity,Monkey [1],inactive
same,Activity,Monkey [2],Curative
COc1cc(NC(C)CCCN)c2ccccc2c1OC (stereo not drawn),Activity,Monkey [1],inactive
COc1cc(NCCCC(C)N)c2ccccc2c1OC (stereo not drawn),Activity,Monkey [1],inactive
CCN(CC)CCCC(C)Nc1cc(OC)c(OC)c2ccccc12 (stereo not drawn),Activity,Monkey [3],inactive
CCC(CCCN)Nc1cc(OC)c(OC)c2ccccc12 (stereo not drawn),Activity,Monkey [4],inactive
same,Activity,Monkey [5],inactive
same,Activity,Monkey [6],Toxic
